# Laboratory results published in patent US8580794B2 (AbbVie Inc., priority 2009, dated 2013).
# pKi: −log10 of the molar value.
# Biological target: GST-Bc1-2 (Homo sapiens, UniProt P10415)
# Assay: Time Resolved-Fluorescence Resonance Energy Transfer (TR-FRET) Bcl-2 binding assay with F-Bak peptide probe
# Conditions: GST-Bcl-2 1 nM, F-Bak probe 100 nM, Tb-anti-GST 1 nM; '<' = below limit of detection; read-out: TR-FRET Bcl-2 Binding Ki
# Protocol: The samples are then mixed on a shaker for 1 minute and incubated for an additional 3 hours at room temperature. For each assay, the probe/antibody and protein/probe/antibody were included on each assay plate as negative and positive controls, respectively.
# The samples were then mixed on a shaker for 1 minute and incubated for an additional 3 hours at room temperature. For each assay, the probe/antibody and protein/probe/antibody were included on each assay plate as negative and positive controls, respectively.
# Sequence of GST-Bc1-2 (P10415 whole entry): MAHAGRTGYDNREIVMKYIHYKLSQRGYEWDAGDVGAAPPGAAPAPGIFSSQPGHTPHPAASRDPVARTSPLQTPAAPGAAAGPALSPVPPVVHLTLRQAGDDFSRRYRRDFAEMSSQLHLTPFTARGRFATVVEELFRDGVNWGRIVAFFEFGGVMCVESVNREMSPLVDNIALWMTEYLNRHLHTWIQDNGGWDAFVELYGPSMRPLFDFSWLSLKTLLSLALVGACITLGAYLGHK
row,SMILES,pKi
1,"CC1(C)CCC(CN2CCN(c3ccc(C(=O)NS(=O)(=O)c4cnc(OCC5CCN(CC#N)CC5)c(Cl)c4)c(Oc4cnc5[nH]ccc5c4)c3)CC2)=C(c2ccc(Cl)cc2)C1 [Example 253, N-[(5-chloro-6-{[1-(cyanomethyl)piperidin-4-yl]methoxy}pyridin-3-yl)sulfonyl]-4-(4-{[2-(4-chlorophenyl)-4,4-dimethylcyclohex-1-en-1-yl]methyl}piperazin-1-yl)-2-(1H-pyrrolo[2,3-b]pyridin-5-yloxy)benzamide]",10.28
2,"COCCOCCN1CC[C@@H](Nc2ccc(S(=O)(=O)NC(=O)c3ccc(N4CCN(CC5=C(c6ccc(Cl)cc6)CC(C)(C)CC5)CC4)cc3Oc3cnc4[nH]ccc4c3)cc2[N+](=O)[O-])C1 [Example 254, 4-(4-{[2-(4-chlorophenyl)-4,4-dimethylcyclohex-1-en-1-yl]methyl}piperazin-1-yl)-N-{[4-({(3R)-1-[2-(2-methoxyethoxy)ethyl]pyrrolidin-3-yl}amino)-3-nitrophenyl]sulfonyl}-2-(1H-pyrrolo[2,3-b]pyridin-5-yloxy)benzamide]",> 11.00
3,"CN(C)CC(=O)N1CC[C@@H](Nc2ccc(S(=O)(=O)NC(=O)c3ccc(N4CCN(CC5=C(c6ccc(Cl)cc6)CC(C)(C)CC5)CC4)cc3Oc3cnc4[nH]ccc4c3)cc2[N+](=O)[O-])C1 [Example 255, 4-(4-{[2-(4-chlorophenyl)-4,4-dimethylcyclohex-1-en-1-yl]methyl}piperazin-1-yl)-N-[(4-{[(3R)-1-(N,N-dimethylglycyl)pyrrolidin-3-yl]amino}-3-nitrophenyl)sulfonyl]-2-(1H-pyrrolo[2,3-b]pyridin-5-yloxy)benzamide]",> 11.00
4,"CC1(C)CCC(CN2CCN(c3ccc(C(=O)NS(=O)(=O)c4ccc(NC5CN(C6COC6)C5)c([N+](=O)[O-])c4)c(Oc4cnc5[nH]ccc5c4)c3)CC2)=C(c2ccc(Cl)cc2)C1 [Example 256, 4-(4-{[2-(4-chlorophenyl)-4,4-dimethylcyclohex-1-en-1-yl]methyl}piperazin-1-yl)-N-[(3-nitro-4-{[1-(oxetan-3-yl)azetidin-3-yl]amino}phenyl)sulfonyl]-2-(1H-pyrrolo[2,3-b]pyridin-5-yloxy)benzamide]",> 11.00
5,"CC1(C)CCC(CN2CCN(c3ccc(C(=O)NS(=O)(=O)c4cnc(OCC5(F)CCN(CC#N)CC5)c(Cl)c4)c(Oc4cnc5[nH]ccc5c4)c3)CC2)=C(c2ccc(Cl)cc2)C1 [Example 257, N-[(5-chloro-6-{[1-(cyanomethyl)-4-fluoropiperidin-4-yl]methoxy}pyridin-3-yl)sulfonyl]-4-(4-{[2-(4-chlorophenyl)-4,4-dimethylcyclohex-1-en-1-yl]methyl}piperazin-1-yl)-2-(1H-pyrrolo[2,3-b]pyridin-5-yloxy)benzamide]",10.28
6,"CN(C)CC(=O)N1CCO[C@H](CNc2ccc(S(=O)(=O)NC(=O)c3ccc(N4CCN(CC5=C(c6ccc(Cl)cc6)CC(C)(C)CC5)CC4)cc3Oc3cnc4[nH]ccc4c3)cc2[N+](=O)[O-])C1 [Example 258, 4-(4-{[2-(4-chlorophenyl)-4,4-dimethylcyclohex-1-en-1-yl]methyl}piperazin-1-yl)-N-{[4-({[(2R)-4-(N,N-dimethylglycyl)morpholin-2-yl]methyl}amino)-3-nitrophenyl]sulfonyl}-2-(1H-pyrrolo[2,3-b]pyridin-5-yloxy)benzamide]",> 11.00
7,"CN(C)CC(=O)N1CCO[C@@H](CNc2ccc(S(=O)(=O)NC(=O)c3ccc(N4CCN(CC5=C(c6ccc(Cl)cc6)CC(C)(C)CC5)CC4)cc3Oc3cnc4[nH]ccc4c3)cc2[N+](=O)[O-])C1 [Example 259, 4-(4-{[2-(4-chlorophenyl)-4,4-dimethylcyclohex-1-en-1-yl]methyl}piperazin-1-yl)-N-{[4-({[(2S)-4-(N,N-dimethylglycyl)morpholin-2-yl]methyl}amino)-3-nitrophenyl]sulfonyl}-2-(1H-pyrrolo[2,3-b]pyridin-5-yloxy)benzamide]",> 11.00
8,"CN(C)CC(=O)N1CCC(COc2ncc(S(=O)(=O)NC(=O)c3ccc(N4CCN(CC5=C(c6ccc(Cl)cc6)CC(C)(C)CC5)CC4)cc3Oc3cnc4[nH]ccc4c3)cc2Cl)CC1 [Example 260, N-[(5-chloro-6-{[1-(N,N-dimethylglycyl)piperidin-4-yl]methoxy}pyridin-3-yl)sulfonyl]-4-(4-{[2-(4-chlorophenyl)-4,4-dimethylcyclohex-1-en-1-yl]methyl}piperazin-1-yl)-2-(1H-pyrrolo[2,3-b]pyridin-5-yloxy)benzamide]",10.80
9,"CC1(C)CCC(CN2CCN(c3ccc(C(=O)NS(=O)(=O)c4cnc(O[C@@H]5CCN(CC(F)F)C5)c(Cl)c4)c(Oc4cnc5[nH]ccc5c4)c3)CC2)=C(c2ccc(Cl)cc2)C1 [Example 261, N-[(5-chloro-6-{[(3R)-1-(2,2-difluoroethyl)pyrrolidin-3-yl]oxy}pyridin-3-yl)sulfonyl]-4-(4-{[2-(4-chlorophenyl)-4,4-dimethylcyclohex-1-en-1-yl]methyl}piperazin-1-yl)-2-(1H-pyrrolo[2,3-b]pyridin-5-yloxy)benzamide]",9.87
10,"CC1(C)CCC(CN2CCN(c3ccc(C(=O)NS(=O)(=O)c4ccc(N[C@@H]5CCN(CC#N)C5)c([N+](=O)[O-])c4)c(Oc4cnc5[nH]ccc5c4)c3)CC2)=C(c2ccc(Cl)cc2)C1 [Example 262, 4-(4-{[2-(4-chlorophenyl)-4,4-dimethylcyclohex-1-en-1-yl]methyl}piperazin-1-yl)-N-[(4-{[(3R)-1-(cyanomethyl)pyrrolidin-3-yl]amino}-3-nitrophenyl)sulfonyl]-2-(1H-pyrrolo[2,3-b]pyridin-5-yloxy)benzamide]",> 11.00
11,"COC1(Cc2ccccc2-c2ccc(Cl)cc2)CCN(c2ccc(C(=O)NS(=O)(=O)c3cnc(OCC4(F)CCOCC4)c(Cl)c3)c(Oc3cnc4[nH]ccc4c3)c2)CC1 [Example 263, 4-{4-[(4′-chlorobiphenyl-2-yl)methyl]-4-methoxypiperidin-1-yl}-N-({5-chloro-6-[(4-fluorotetrahydro-2H-pyran-4-yl)methoxy]pyridin-3-yl}sulfonyl)-2-(1H-pyrrolo[2,3-b]pyridin-5-yloxy)benzamide]",9.81
12,"COC1(Cc2ccccc2-c2ccc(Cl)cc2)CCN(c2ccc(C(=O)NS(=O)(=O)c3ccc(NCC4CCOCC4)c([N+](=O)[O-])c3)c(Oc3cnc4[nH]ccc4c3)c2)CC1 [Example 264, 4-{4-[(4′-chlorobiphenyl-2-yl)methyl]-4-methoxypiperidin-1-yl}-N-({3-nitro-4-[(tetrahydro-2H-pyran-4-ylmethyl)amino]phenyl}sulfonyl)-2-(1H-pyrrolo[2,3-b]pyridin-5-yloxy)benzamide]",10.44
13,"O=C(NS(=O)(=O)c1ccc(NCC2CCOCC2)c([N+](=O)[O-])c1)c1ccc(N2CCN(CC3=C(c4ccc(Cl)cc4)CCC4(CCN(C(CF)CF)CC4)C3)CC2)cc1Oc1cnc2[nH]ccc2c1 [Example 265, 4-(4-{[9-(4-chlorophenyl)-3-(1,3-difluoropropan-2-yl)-3-azaspiro[5.5]undec-8-en-8-yl]methyl}piperazin-1-yl)-N-({3-nitro-4-[(tetrahydro-2H-pyran-4-ylmethyl)amino]phenyl}sulfonyl)-2-(1H-pyrrolo[2,3-b]pyridin-5-yloxy)benzamide]",> 11.00
14,"CC(C)N1CCC2(CCC(c3ccc(Cl)cc3)=C(CN3CCN(c4ccc(C(=O)NS(=O)(=O)c5ccc(NCC6CCOCC6)c([N+](=O)[O-])c5)c(Oc5cnc6[nH]ccc6c5)c4)CC3)C2)CC1 [Example 266, 4-(4-{[9-(4-chlorophenyl)-3-isopropyl-3-azaspiro[5.5]undec-8-en-8-yl]methyl}piperazin-1-yl)-N-({3-nitro-4-[(tetrahydro-2H-pyran-4-ylmethyl)amino]phenyl}sulfonyl)-2-(1H-pyrrolo[2,3-b]pyridin-5-yloxy)benzamide]",> 11.00
15,"CC(C)N1CCC2(CCC(c3ccc(Cl)cc3)=C(CN3CCN(c4ccc(C(=O)NS(=O)(=O)c5cnc(OCC6CCOCC6)c(Cl)c5)c(Oc5cnc6[nH]ccc6c5)c4)CC3)C2)CC1 [Example 268, 4-(4-{[9-(4-chlorophenyl)-3-isopropyl-3-azaspiro[5.5]undec-8-en-8-yl]methyl}piperazin-1-yl)-N-{[5-chloro-6-(tetrahydro-2H-pyran-4-ylmethoxy)pyridin-3-yl]sulfonyl}-2-(1H-pyrrolo[2,3-b]pyridin-5-yloxy)benzamide]",> 11.00
16,"CN1CCC(F)(COc2ncc(S(=O)(=O)NC(=O)c3ccc(N4CCN(CC5=C(c6ccc(Cl)cc6)CC(C)(C)CC5)CC4)cc3Oc3cnc4[nH]ccc4c3)cc2Cl)CC1 [Example 269, N-({5-chloro-6-[(4-fluoro-1-methylpiperidin-4-yl)methoxy]pyridin-3-yl}sulfonyl)-4-(4-{[2-(4-chlorophenyl)-4,4-dimethylcyclohex-1-en-1-yl]methyl}piperazin-1-yl)-2-(1H-pyrrolo[2,3-b]pyridin-5-yloxy)benzamide]",10.80
17,"CN(C)CC(=O)N1CCC(F)(COc2ncc(S(=O)(=O)NC(=O)c3ccc(N4CCN(CC5=C(c6ccc(Cl)cc6)CC(C)(C)CC5)CC4)cc3Oc3cnc4[nH]ccc4c3)cc2Cl)CC1 [Example 270, N-[(5-chloro-6-{[1-(N,N-dimethylglycyl)-4-fluoropiperidin-4-yl]methoxy}pyridin-3-yl)sulfonyl]-4-(4-{[2-(4-chlorophenyl)-4,4-dimethylcyclohex-1-en-1-yl]methyl}piperazin-1-yl)-2-(1H-pyrrolo[2,3-b]pyridin-5-yloxy)benzamide]",> 11.00
18,"O=C(NS(=O)(=O)c1ccc(NCC2CCOCC2)c([N+](=O)[O-])c1)c1ccc(N2CCC(F)(Cc3ccccc3-c3ccc(Cl)cc3)CC2)cc1Oc1cnc2[nH]ccc2c1 [Example 271, 4-{4-[(4′-chlorobiphenyl-2-yl)methyl]-4-fluoropiperidin-1-yl}-N-({3-nitro-4-[(tetrahydro-2H-pyran-4-ylmethyl)amino]phenyl}sulfonyl)-2-(1H-pyrrolo[2,3-b]pyridin-5-yloxy)benzamide]",10.41
19,"O=C(NS(=O)(=O)c1cnc(OCC2(F)CCOCC2)c(Cl)c1)c1ccc(N2CCC(F)(Cc3ccccc3-c3ccc(Cl)cc3)CC2)cc1Oc1cnc2[nH]ccc2c1 [Example 272, 4-{4-[(4′-chlorobiphenyl-2-yl)methyl]-4-fluoropiperidin-1-yl}-N-({5-chloro-6-[(4-fluorotetrahydro-2H-pyran-4-yl)methoxy]pyridin-3-yl}sulfonyl)-2-(1H-pyrrolo[2,3-b]pyridin-5-yloxy)benzamide]",10.51
